The test system of assay [1] is HCT116 MTAP KO cells. The experiment in a line: Inhibitory activity against cell proliferation (CellTiter Glo, 6 days), HCT116 MTAP KO. The assay is classed as cell-based. The following applies: for IC50: Homo sapiens, HCT-116, 144 h, HCT116 MTAP KO cells, 6 days, CellTiter Glo, read-out: HCT116 MTAP KO IC50; for Selectivity HCT 116-WT/ HCT116 MTAP KO: ratio of IC50 HCT116-WT / HCT116 MTAP KO. The method in brief: (§1)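 HCT116 wild-type or MTAP-knockout cells (250/well, McCoy's 5A + 10% FBS) treated after overnight culture with 8-point 4-fold dilutions from 10000 nM for 6 days at 37 °C. Viability read by CellTiter Glo luminescence on day 7; IC50 calculated against DMSO controls.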

Assay [2] addresses PRMT5-MTA (Homo sapiens, UniProt O14744). The experiment in a line: Enzymatic inhibitory activity against PRMT5-MTA (AlphaScreen). It counts as biochemical. The method in brief:
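PRMT5/[…] (1 nM) was preincubated for 30 min at room temperature with 1 µM […] and 2.5 µM SAM, then exposed to compound (10-point, 3-fold from 1000 nM) for 15 min at 23 °C. Histone H4 substrate (5 nM) was added and reacted for 45 min at 23 °C. Symmetric dimethyl-R3 H4 was detected by AlphaScreen and IC50 calculated.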
A general note: Alpha assays give light when donor and acceptor beads are brought close together.

Assay [3] deals with HCT116-WT cells. The experiment in a line: Inhibitory activity against cell proliferation (CellTiter Glo, 6 days), HCT116-WT. It counts as cell-based. To be noted: 144 h, HCT116-WT cells, 6 days, CellTiter Glo; read-out: HCT116-WT IC50. An outline of the steps: as §1
A general note: ATP-based viability assays read luminescence as a measure of living cells.

Read-outs that look alike come from different tables or passages of the source.

What is called IC50 is the midpoint of a concentration-inhibition curve.

Sequence of PRMT5-MTA (O14744 whole entry): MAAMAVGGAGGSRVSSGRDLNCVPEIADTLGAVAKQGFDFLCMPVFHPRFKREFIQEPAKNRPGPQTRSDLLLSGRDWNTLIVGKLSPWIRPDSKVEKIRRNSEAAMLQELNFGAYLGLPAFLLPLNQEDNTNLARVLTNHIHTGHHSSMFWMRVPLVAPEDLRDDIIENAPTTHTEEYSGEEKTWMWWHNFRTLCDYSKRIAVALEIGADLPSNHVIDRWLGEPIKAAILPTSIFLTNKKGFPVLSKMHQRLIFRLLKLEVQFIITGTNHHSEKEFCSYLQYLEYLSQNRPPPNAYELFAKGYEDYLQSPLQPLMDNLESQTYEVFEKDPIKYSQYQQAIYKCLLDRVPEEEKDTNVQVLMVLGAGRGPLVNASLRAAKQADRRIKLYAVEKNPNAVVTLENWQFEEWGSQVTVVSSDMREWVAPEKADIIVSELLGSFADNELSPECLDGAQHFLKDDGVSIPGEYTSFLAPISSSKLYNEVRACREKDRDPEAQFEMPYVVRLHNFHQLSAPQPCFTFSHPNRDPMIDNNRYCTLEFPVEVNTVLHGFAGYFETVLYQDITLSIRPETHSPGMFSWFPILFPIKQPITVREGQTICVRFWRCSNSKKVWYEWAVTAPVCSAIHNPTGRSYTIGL
Sequence of PRMT5-MTA (Q9BQA1 whole entry partner): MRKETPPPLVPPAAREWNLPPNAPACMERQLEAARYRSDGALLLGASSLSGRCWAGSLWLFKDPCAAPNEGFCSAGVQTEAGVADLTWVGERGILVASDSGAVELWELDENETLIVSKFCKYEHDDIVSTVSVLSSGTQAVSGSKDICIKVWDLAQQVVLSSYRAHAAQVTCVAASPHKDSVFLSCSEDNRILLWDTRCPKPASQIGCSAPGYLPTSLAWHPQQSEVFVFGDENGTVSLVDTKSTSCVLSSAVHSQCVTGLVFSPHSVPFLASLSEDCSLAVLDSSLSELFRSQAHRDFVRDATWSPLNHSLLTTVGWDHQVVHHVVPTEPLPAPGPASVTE

Turning to `Cc1cc2cc(C(=O)N(Cc3ccc(-c4scnc4CO)cn3)N(C)c3ncccn3)ccc2nc1N` [Example 236, 2-amino-N-((5-(4-(hydroxymethyl)thiazo 1-5-yl)pyridin-2-yl)methyl)-N',3-dimethyl -N'-(pyrimidin-2-yl)quinoline-6-carbohyd razide], the IC50 was determined as 26 nM in assay [1], 6 nM in assay [2] (read-out: IC50) and 1110 nM in assay [3]. For the same compound, in assay [1], the “Selectivity HCT 116-WT/ HCT116 MTAP KO” value is listed as 42.85.
Taken in the same sequence, the figures for `Cc1cc2cc(C(=O)N(Cc3ccc(C4CCOC4)cn3)N(C)c3ncccn3)ccc2nc1N` (centres unmarked) [Example 217, 2-amino-N',3-dimethyl-N'-(pyrimidin-2-yl)-N-((5-(tetrahydrofuran-3-yl)pyridin-2-yl)methyl)quinoline-6-carbohydrazide] were 70 nM, 2.9 nM, 2950 nM and 42.11.
For `Cn1ncc2c(N)nc3cc(Cl)c(C(=O)N4CC5(CC5)CN4c4ncc(Br)cc4F)cc3c21` [Example 345, (4-amino-7-chloro-1-methyl-1H-pyrazolo [4,3-c]quinolin-8-yl)(6-(5-bromo-3-fluor opyridin-2-yl)-5,6-diazaspiro[2.4]heptan-5-yl)methanone], the values for the IC50 in assay [1], in assay [2] (read-out: IC50) and in assay [3] were 44 nM, 4.4 nM and 773 nM, respectively. Also, the “Selectivity HCT 116-WT/ HCT116 MTAP KO” value in assay [1] amounted to 17.57.
Taken in the same sequence, the figures for `CC(=O)c1ccc(CN(C(=O)c2ccc3nc(N)c(C)cc3c2)N(C)c2ncccn2)nc1` [Example 294, N-((5-acetylpyridin-2-yl)methyl)-2-amino-N',3-dimethyl-N'-(pyrimidin-2-yl)quinoline-6-carbohydrazide] were 113 nM, 1.9 nM, 2900 nM and 25.71.
Taken in the same sequence, the figures for `Cc1cc2cc(C(=O)N(Cc3ccc(C(F)(F)F)cn3)N(C)c3nccc4ncccc34)ccc2nc1N` [Example 108, 2-amino-N',3-dimethyl-N'-(1,6-naphthyridin-5-yl)-N-((5-(trifluoromethyl)pyridin-2-yl)methyl)quinoline-6-carbohydrazide] were 141 nM, 1.9 nM, 3420 nM and 24.26.
As for `Cc1cc2nc(N)c3cnn(C)c3c2cc1C(=O)N1CCCN1c1ccc(C(F)(F)F)cc1` [Example 377, (4-amino-1,7-dimethyl-1H-pyrazolo[4,3-c]quinolin-8-yl)(2-(4-(trifluoromethyl)phenyl)pyrazolidin-1-yl)methanone], the results for the IC50 in assay [1], in assay [2] (read-out: IC50) and in assay [3] were 311 nM, 3.1 nM and 4310 nM, respectively. In assay [1], the “Selectivity HCT 116-WT/ HCT116 MTAP KO” value is listed as 13.85.
Taken in the same sequence, the figures for `Cc1cc2cc(C(=O)N(Cc3ccc(C(F)(F)F)cn3)n3ccc4cccnc43)ccc2nc1N` [Example 21, 2-amino-3-methyl-N-(1H-pyrrolo[2,3-b]pyridin-1-yl)-N-((5-(trifluoromethyl)pyridin-2-yl)methyl)quinoline-6-carboxamide] were 85 nM, 1.9 nM, 2340 nM and 27.53.
In the same order, the values of `Cn1ncc2c(N)nc3cc(Cl)c(C(=O)N4CC(F)(F)CN4c4ncc(Br)cc4F)cc3c21` [Example 456, (4-amino-7-chloro-1-methyl-1H-pyrazolo [4,3-c]quinolin-8-yl)(2-(5-bromo-3-fluor opyridin-2-yl)-4,4-difluoropyrazolidin-1-yl)methanone] are 28 nM, 7 nM, 1930 nM and 68.89.
Regarding `Cc1cc2cc(C(=O)N(Cc3ccc(C4CC4)cn3)N(C)c3ncccc3F)ccc2nc1N` [Example 164, 2-amino-N-((5-cyclopropylpyridin-2-yl)methyl)-N'-(3-fluoropyridin-2-yl)-N',3-di methylquinoline-6-carbohydrazide], the figures for the IC50 in assay [1], in assay [2] (read-out: IC50) and in assay [3] were 20 nM, 0.9 nM and 443 nM, respectively. Also, the “Selectivity HCT 116-WT/ HCT116 MTAP KO” value in assay [1] was determined as 22.15.
Take `Cc1cc2nc(N)c3cnn(C)c3c2cc1C(=O)N1CC2(CN1c1ncccc1F)CC(F)(F)C2` [Example 410, (4-amino-1,7-dimethyl-1H-pyrazolo[4,3-c]quinolin-8-yl)(2,2-difluoro-7-(3-fluoropyridin-2-yl)-6,7-diazaspiro[3.4]octan-6-yl)methanone]: the IC50 in assay [1] stood at 9 nM; in assay [2] (read-out: IC50) it was 5.2 nM; in assay [3], 219 nM. Further, the “Selectivity HCT 116-WT/ HCT116 MTAP KO” value in assay [1] came to 24.33.
In the same order, the values of `Cc1cc2cc(C(=O)N(Cc3ccc(-c4ccnnc4)cn3)N(C)c3ncccn3)ccc2nc1N` [Example 220, 2-amino-N',3-dimethyl-N-((5-(pyridazin-4-yl)pyridin-2-yl)methyl)-N'-(pyrimidin-2-yl) quinoline-6-carbohydrazide] are 23 nM, 1.2 nM, 405 nM and 17.61.
In the same order, the values of `Cc1cc2nc(N)c3cnn(C)c3c2cc1C(=O)N1CC(C)CN1c1ccc(F)cn1` (centres unmarked) [Example 346, (4-amino-1,7-dimethyl-1H-pyrazolo[4,3-c]quinolin-8-yl)(2-(5-fluoropyridin-2-yl)-4-methylpyrazolidin-1-yl)methanone] are 53 nM, 3.6 nM, 2190 nM and 41.25.
`Cc1cc2cc(C(=O)N(Cc3ccc(-c4scnc4C)cn3)N(C)c3ncccn3)ccc2nc1N` [Example 235, 2-amino-N',3-dimethyl-N-((5-(4-methylthiazol-5-yl)pyridin-2-yl)methyl)-N'-(pyrimidin-2-yl)quinoline-6-carbohydrazide]: the values for the IC50 in assay [1], in assay [2] (read-out: IC50) and in assay [3] were 5.7 nM, 3.8 nM and 183 nM, respectively. Further, the “Selectivity HCT 116-WT/ HCT116 MTAP KO” value in assay [1] is 32.11.
In the same order, the values of `CN(c1ncccn1)N(Cc1ccc(C(F)(F)F)cn1)C(=O)c1ccc2nc(N)c(CO)cc2c1` [Example 325, 2-amino-3-hydroxymethyl-N'-methyl-N'-(pyrimidin-2-yl)-N-((5-(trifluoromethyl)pyridin-2-yl)methyl)quinoline-6-carbohydrazide] are 82 nM, 2.3 nM, 3180 nM and 38.72.
In the case of `Cc1cc2cc(C(=O)N(Cc3ccc(-c4ccc(=O)n(C)c4)cn3)N(C)c3ncccn3)ccc2nc1N` [Example 155, 2-amino-N',3-dimethyl-N-((1'-methyl-6'-oxo-1',6'-dihydro-[3,3'-bipyridine]-6-yl)methyl)-N'-(pyrimidin-2-yl)quinoline-6-car bohydrazide], the values for the IC50 in assay [1], in assay [2] (read-out: IC50) and in assay [3] were 42 nM, 2.3 nM and 1260 nM, respectively. Besides, in assay [1], the “Selectivity HCT 116-WT/ HCT116 MTAP KO” value is reported as 30.00.
As for `Cc1cc2nc(N)c3cnn(C)c3c2cc1C(=O)N1CC(C)CN1c1ccncc1F` (centres unmarked) [Example 379, (4-amino-1,7-dimethyl-1H-pyrazolo[4,3-c]quinolin-8-yl)(2-(3-fluoropyridin-4-yl)-4-methylpyrazolidin-1-yl)methanone], the values for the IC50 in assay [1], in assay [2] (read-out: IC50) and in assay [3] were 40 nM, 7.8 nM and 1820 nM, respectively. Moreover, the “Selectivity HCT 116-WT/ HCT116 MTAP KO” value in assay [1] is recorded as 45.38.
In the same order, the values of `Cc1cc2nc(N)c3cnn(C)c3c2cc1C(=O)N1CC(C)CN1c1ncccc1Br` (centres unmarked) [Example 370, (4-amino-1,7-dimethyl-1H-pyrazolo[4,3-c]quinolin-8-yl)(2-(3-bromopyridin-2-yl) -4-methylpyrazolidin-1-yl)methanone] are 118 nM, 5.7 nM, 3470 nM and 29.42.
In the same order, the values of `Cc1cc2nc(N)c3cnn(C)c3c2cc1C(=O)N1CC2(CCC2)CN1c1ncccc1F` [Example 348, (4-amino-1,7-dimethyl-1H-pyrazolo[4,3-c]quinolin-8-yl)(7-(3-fluoropyridin-2-yl)-6,7-diazaspiro[3.4]octan-6-yl)methanone] are 6.9 nM, 7.5 nM, 208 nM and 30.14.
In the case of `Cn1ncc2c(N)nc3cc(Cl)c(C(=O)N4CC(F)(F)CN4c4ncc(Cl)cc4F)cc3c21` [Example 460, (4-amino-7-chloro-1-methyl-1H-pyrazolo [4,3-c]quinolin-8-yl)(2-(5-chloro-3-fluoropyridin-2-yl)-4,4-difluoropyrazolidin-1-yl)methanone], the 50% inhibitory concentration (IC50) in assay [1] is 18 nM; in assay [2] (read-out: IC50), 8.2 nM; in assay [3], 479 nM. Moreover, the “Selectivity HCT 116-WT/ HCT116 MTAP KO” value in assay [1] amounted to 26.61.
Regarding `Cn1ncc2c(N)nc3cc(Cl)c(C(=O)N4CC(C)(F)CN4c4ccccc4F)cc3c21` (centres unmarked) [Example 419], the results for the IC50 in assay [1], in assay [2] and in assay [3] were 14 nM, 4.6 nM and 226 nM, respectively. Besides, in assay [1], the “Selectivity HCT 116-WT/ HCT116 MTAP KO” value came to 16.14.
